Reference: paper PMC9415509, “Pro-Apoptotic Antitumoral Effect of Novel Acridine-Core Naphthoquinone Compounds against Oral Squamous Cell Carcinoma” (Molecules, 2022)
Values joined by “and” are separate entries in the source; they are usually repeats but may differ in a detail not shown here. Identical values can stand only once.

What was measured:
[1] = test system: OSCC cells (SCC-4, SCC-9, SCC-25); assay: MTT cytotoxicity and selectivity, mean over OSCC cell lines; type: cell-based, human
Experimental: Cell viability assay (cytotoxicity) and compound stability assay. The viability of SCC cell lines and primary human fibroblast cells was evaluated using the MTT assay as in [48]. Briefly, the cells were grown in triplicates in 96-well plates (5 × 10^3 cells/well) until confluence. Then, the medium was removed, fresh medium was added, and the cells were returned to the incubator in the presence of different compounds. DMSO at the same concentrations was used as a 100% cell viability control. After 48 h, the cells were incubated with 5 mg/mL MTT reagent (3-(4,5-dimethyl-2-thiazolyl)-2,5-diphenyl-2-H-tetrazolium bromide) (Sigma-Aldrich Co., St. Louis, MO, USA) for 3.5 h. After that, formazan crystals were dissolved in MTT solvent solution (DMSO/methanol 1:1 v/v) and the absorbance at 560 nm was evaluated using an EPOCH microplate spectrophotometer (BioTek Instruments, Winooski, VT, USA) with the background absorbance at 670 nm subtracted.
Statistical analysis, IC50 calculation. The data are presented as means ±\SD. IC50 values for the MTT assays were obtained by nonlinear regression using the […] […] The selectivity index was calculated as SI = IC50 of the compound in normal oral fibroblast cells/IC50 of the same compound for each oral cancer cell line (SCC-4, SCC-9, and SCC-25) and the mean was calculated when indicated.

C57BL/6 female mice = assay: In vivo acute toxicity study; conditions: 14 days
Experimental: In vivo acute toxicity study. The acute toxicity study for compound 4e was performed in twelve-week-old C57BL/6 female mice via intraperitoneal injection and was approved by the University Animal Ethics Board under registration number 982. All experiments were performed in accordance with Brazilian guidelines and regulations. Dosing and analysis were performed according to 423 OECD guidelines and reviewed by. Each animal group had n = 3 or 4 (as indicated) and received only one intraperitoneal injection (Day 0) of compound 4e dissolved in […] PBS and 3% DMSO. The control group animals received only 3% DMSO in PBS. The first dose of the compound was 100 mg/kg. Subsequent dose levels (200 mg/kg and 400 mg/kg) were determined based on the result obtained from the previous dosing. The animals were examined every day, twice a day, for mortality and morbidity for 14 days, when all animals were anesthetized (ketamine 100 mg/kg and xylazine 10 mg/kg) followed by cervical dislocation. Gross necropsy and histology of the main organs were performed. The animals’ body weights and average food consumption were measured every 7 days. As an indication of morbidity, the following signs were assessed: tremors; convulsion; salivation; diarrhea; lethargy; coma; pain signs; increased rear arching; and mobility impairment. The necropsy included an examination of the external characteristics of the carcass; external body orifices; the abdominal, thoracic, and cranial cavities; organs/tissues of the liver, thymus, right kidney, […], heart, and lung. Major organs were analyzed by histopathology. For more details, see Supplementary Methods.

SCC9 cells [2] = assay: SubG1 analysis (DNA fragmentation), flow cytometry; type: cell-based, human; conditions: SCC9, 72 h of treatment, PI staining
Experimental: Cell cycle and SubG1 analysis. To evaluate the action of compound 4e on the cell cycle and DNA fragmentation, cells of the SCC9 cell line were plated in a 6-well plate (5 × 10^5 cells/well). After 48 (cell cycle) or 72 h (DNA fragmentation) of treatment, the cells were trypsinized and stained with propidium iodide (75 µM) in the presence of NP-40. The DNA content was analyzed by collecting 10,000 events using a FACScalibur flow cytometer. The data were analyzed using CellQuest (BD Biosciences, Franklin Lakes, NJ, USA) and FlowJo (Tree Star Inc., Ashland, OR, USA) software as in [49].

SCC9 cells [3] = assay: ROS production (ROS-Glo H2O2 assay); type: cell-based, human; conditions: SCC9, 2 × IC50, 3, 6, 24 and 48 h
Experimental: ROS production. The hydrogen peroxide (H2O2) luminescence assay was performed using the ROS-Glo™ H2O2 assay kit (Promega Corporation, Madison, WI, USA). […] A plate with wells without cells was used as a control. The cells and cell-free wells remained in treatment at the times of interest and, 2 h before the completion of the times, the well volumes were removed to reduce to 40 µL per well. Then, the positive control of menadione, a polycyclic aromatic ketone based on 1,4-naphthoquinone, was used to treat its respective well, and H2O2 substrate was added for all treatments, followed by the incubation of the plate for the 2 h remaining. After the times of 3, 6, 24, and 48 h, the detection solution was added, and the plates remained at room temperature for 20 min, following the reading in the luminometer.

SCC9-LC3-GFP cells = assay: Autophagy assay (LC3-GFP puncta); type: cell-based, human; conditions: 4e 2 × IC50, 48 h; CPP 20% (v/v) 4–6 h
Experimental: Autophagy assay. To determine if compound 4e induces autophagy, SCC9 cells were stably transduced with LC3-GFP expressing plasmid. For the generation of SCC9 cell lines harboring LC3-GFP, HEK293FT cells were transfected with 3 µg of each helper plasmids (pMDLglpRRE, pHCMV g, and pRSVrev) and 8 µg of the pLV-CMV-SV40-Puro-GFP-LC3 using calcium phosphate and 25 µM chloroquine. Twenty-four hours later, a lentivirus-containing medium was harvested, supplemented with 8 µg/mL of Polybrene, and used to transduce SCC9 cells. Twenty-four hours later, the transduced cells were selected with 5 µg/mL of Puromycin for 7 days. The cells were then cultured with 2.5 µg/mL Puromycin for further experiments. The lentiviral construct encoding pLV-CMV-SV40-Puro-GFP-LC3 was a gift from Dr. SilvyaStuchi Maria Engler. […] As a positive control, calcium phosphate precipitates (CPP) were prepared by adding CaCl2 dropwise to Na2HPO4 (in Hepes, pH 7.05) as previously described. CPP 20% (v/v) was administrated to the cells 4–6 h before analysis.

CC1(C)CC(=O)C2=C(C1)NC1=C(C(=O)c3ccccc3C1=O)C2c1ccc(Cl)cc1Cl (centres unmarked) [4e, 12-(2,4-dichlorophenyl)-3,3-dimethyl-3,4-dihydrobenzo[b]acridine-1,6,11(2H,5H,12H)-trione]
IC50 ([1]; Homo sapiens, mean of SCC4, SCC9, SCC25): 30 µM
SI (mean selectivity index) ([1]; mean over OSCC cell lines vs normal fibroblasts): 2.9 and 2.93
Change in Body Weight (C57BL/6 female mice; 100 mg/kg single i.p. dose): Absent
Change in Food Consumption (C57BL/6 female mice; 100 mg/kg single i.p. dose): Absent
Gross Necropsy (C57BL/6 female mice; 100 mg/kg single i.p. dose): No alteration
Histology (C57BL/6 female mice; 100 mg/kg single i.p. dose): No significant alteration in comparison to control
Morbidity (C57BL/6 female mice; 100 mg/kg single i.p. dose): Absent
Change in Body Weight (C57BL/6 female mice; 200 mg/kg single i.p. dose): Absent
Change in Food Consumption (C57BL/6 female mice; 200 mg/kg single i.p. dose): Absent
Gross Necropsy (C57BL/6 female mice; 200 mg/kg single i.p. dose): No alteration
Histology (C57BL/6 female mice; 200 mg/kg single i.p. dose): Presence of mild Perivascular and periportal lymphocyte focus and Bronchus-Associated Lymphoid Tissue (BALT)
Morbidity (C57BL/6 female mice; 200 mg/kg single i.p. dose): Absent
Change in Body Weight (C57BL/6 female mice; 400 mg/kg single i.p. dose): Absent
Change in Food Consumption (C57BL/6 female mice; 400 mg/kg single i.p. dose): Absent
Gross Necropsy (C57BL/6 female mice; 400 mg/kg single i.p. dose): No alteration
Histology (C57BL/6 female mice; 400 mg/kg single i.p. dose): Presence of mild Perivascular and periportal lymphocyte focus and Bronchus-Associated Lymphoid Tissue (BALT)
Morbidity (C57BL/6 female mice; 400 mg/kg single i.p. dose): Absent
DNA fragmentation (Sub-G1 DNA-content), cells (SCC9 cells [2]): 25.5% and ~ 25%
ROS production (SCC9 cells [3]): low production of ROS
LC3-GFP puncta formation (autophagy) (SCC9-LC3-GFP cells): neither DMSO nor 4e were able to induce this cell death process
